{"source": "patent US9695155B2", "about": "“Herbicidal substituted pyrimidinyloxy benzene compounds” (E. I. DU PONT DE NEMOURS AND COMPANY, priority 2013, dated 2017)", "key": {"green foxtail": {"system": "green foxtail", "assay": "Test D postemergence", "assay_type": "in vivo, Setaria viridis", "conditions": "Setaria viridis, post-emergence", "from_the_text": "(§1) Seeds of plant species selected from bluegrass (annual bluegrass, Poa annua), blackgrass (Alopecurus myosuroides), canarygrass (littleseed canarygrass, Phalaris minor), chickweed (common chickweed, Stellaria media), galium (catchweed bedstraw, Galium aparine), bromegrass, downy (downy bromegrass, Bromus tectorum), field poppy (Papaver rhoeas), field violet (Viola arvensis), green foxtail (Setaria viridis), deadnettle (henbit deadnettle, Lamium amplexicaule), Italian ryegrass (Lolium multiflorum), kochia (Kochia scoparia), lambsquarters (Chenopodium album), oilseed rape (Brassica napus), pigweed (Amaranthus retroflexus), chamomile (scentless chamomile, Matricaria inodora), Russian thistle (Salsola kali), speedwell (bird's-eye speedwell, Veronica persica), spring barley (Hordeum vulgare), spring wheat (Triticum aestivum), wild buckwheat (Polygonum convolvulus), wild mustard (Sinapis arvensis), wild oat (Avena fatua), wild radish (Raphanus raphanistrum), windgrass (Apera spica-venti), winter barley (Hordeum vulgare), and winter wheat (Triticum aestivum) were planted into a silt loam soil and treated preemergence with test chemicals formulated in a non-phytotoxic solvent mixture which included a surfactant.\n(§2) At the same time, these species were planted in pots containing Redi-Earth® planting medium (Scotts Company, 14111 Scottslawn Road, Marysville, Ohio 43041) comprising spaghnum peat moss, vermiculite, wetting agent and starter nutrients and treated with postemergence applications of the test chemicals formulated in the same manner. Plants ranged in height from 2 to 18 cm (1- to 4-leaf stage). Treated plants and controls were maintained in a controlled growth environment for 7 to 21 days after which time all species were compared to controls and visually evaluated. Plant response ratings, summarized in Table D, are based on a scale of 0 to 100 where 0 is no effect and 100 is complete control. A dash (-) response means no test result."}, "chamomile": {"system": "chamomile", "assay": "Test D postemergence", "assay_type": "in vivo, Matricaria inodora", "conditions": "Tripleurospermum inodorum, post-emergence", "from_the_text": "as §1, §2"}, "field violet": {"system": "field violet", "assay": "Test D preemergence", "assay_type": "in vivo, Viola arvensis", "conditions": "Viola arvensis, pre-emergence", "from_the_text": "as §1, §2"}, "kochia": {"system": "kochia", "assay": "Test D preemergence", "assay_type": "in vivo, Kochia scoparia", "conditions": "Bassia scoparia, pre-emergence", "from_the_text": "as §1, §2"}, "wild oat": {"system": "wild oat", "assay": "Test D preemergence", "assay_type": "in vivo, Avena fatua", "conditions": "Avena fatua, pre-emergence", "from_the_text": "as §1, §2"}, "galium": {"system": "galium", "assay": "Test D preemergence", "assay_type": "in vivo, Galium aparine", "conditions": "Galium, pre-emergence", "from_the_text": "as §1, §2"}, "spring wheat": {"system": "spring wheat", "assay": "Test D postemergence", "assay_type": "in vivo, Triticum aestivum", "conditions": "Triticum aestivum, post-emergence", "from_the_text": "as §1, §2"}, "winter wheat": {"system": "winter wheat", "assay": "Test D postemergence", "assay_type": "in vivo, Triticum aestivum", "conditions": "Triticum aestivum, post-emergence", "from_the_text": "as §1, §2"}, "windgrass": {"system": "windgrass", "assay": "Test D preemergence", "assay_type": "in vivo, Apera spica-venti", "conditions": "Apera spica-venti, pre-emergence", "from_the_text": "as §1, §2"}, "field poppy": {"system": "field poppy", "assay": "Test D preemergence", "assay_type": "in vivo, Papaver rhoeas", "conditions": "Papaver rhoeas, pre-emergence", "from_the_text": "as §1, §2"}}}
{"smiles": "FC(F)(F)COc1cnn(-c2ccccc2Oc2ncc(Cl)cn2)c1", "note": "[Compound 138, 5-chloro-2-[2-[4-(2,2,2-trifluoroethoxy)-1H-pyrazol-1-yl]phenoxy]pyrimidine]", "values": [{"measurement": "pest or weed control at 16 g/ha", "setting": "green foxtail; 16 g ai/ha, scale 0-100, read-out: Plant response rating, Foxtail, Green", "value": 20, "unit": "%"}, {"measurement": "pest or weed control at 31 g/ha", "setting": "green foxtail; 31 g ai/ha, scale 0 to 100 (0 no effect, 100 complete control), read-out: Plant response rating, Foxtail, Green", "value": 20, "unit": "%"}, {"measurement": "pest or weed control at 62 g/ha", "setting": "green foxtail; 62 g ai/ha, scale 0 to 100 (0 no effect, 100 complete control), read-out: Plant response rating, Foxtail, Green", "value": 20, "unit": "%"}, {"measurement": "pest or weed control at 125 g/ha", "setting": "green foxtail; 125 g ai/ha, scale 0 to 100 (0 no effect, 100 complete control), read-out: Plant response rating, Foxtail, Green", "value": 30, "unit": "%"}, {"measurement": "pest or weed control at 16 g/ha", "setting": "chamomile; 16 g ai/ha, scale 0-100, read-out: Plant response rating, Chamomile", "value": 0, "unit": "%"}, {"measurement": "pest or weed control at 31 g/ha", "setting": "chamomile; 31 g ai/ha, scale 0 to 100 (0 no effect, 100 complete control), read-out: Plant response rating, Chamomile", "value": 0, "unit": "%"}, {"measurement": "pest or weed control at 62 g/ha", "setting": "chamomile; 62 g ai/ha, scale 0 to 100 (0 no effect, 100 complete control), read-out: Plant response rating, Chamomile", "value": 0, "unit": "%"}, {"measurement": "pest or weed control at 125 g/ha", "setting": "chamomile; 125 g ai/ha, scale 0 to 100 (0 no effect, 100 complete control), read-out: Plant response rating, Chamomile", "value": 0, "unit": "%"}, {"measurement": "pest or weed control at 16 g/ha", "setting": "field violet; 16 g ai/ha, scale 0 (no effect) to 100 (complete control), read-out: Plant response rating, Field Violet", "value": 70, "unit": "%"}, {"measurement": "pest or weed control at 31 g/ha", "setting": "field violet; 31 g ai/ha, scale 0-100, read-out: Plant response rating, Field Violet", "value": 25, "unit": "%"}, {"measurement": "pest or weed control at 62 g/ha", "setting": "field violet; 62 g ai/ha, scale 0-100, read-out: Plant response rating, Field Violet", "value": 70, "unit": "%"}, {"measurement": "pest or weed control at 125 g/ha", "setting": "field violet; 125 g ai/ha, scale 0-100, read-out: Plant response rating, Field Violet", "value": 75, "unit": "%"}, {"measurement": "pest or weed control at 16 g/ha", "setting": "kochia; 16 g ai/ha, scale 0 (no effect) to 100 (complete control), read-out: Plant response rating, Kochia", "value": 20, "unit": "%"}, {"measurement": "pest or weed control at 31 g/ha", "setting": "kochia; 31 g ai/ha, scale 0-100, read-out: Plant response rating, Kochia", "value": 20, "unit": "%"}, {"measurement": "pest or weed control at 62 g/ha", "setting": "kochia; 62 g ai/ha, scale 0-100, read-out: Plant response rating, Kochia", "value": 35, "unit": "%"}, {"measurement": "pest or weed control at 125 g/ha", "setting": "kochia; 125 g ai/ha, scale 0-100, read-out: Plant response rating, Kochia", "value": 55, "unit": "%"}, {"measurement": "pest or weed control at 16 g/ha", "setting": "wild oat; 16 g ai/ha, scale 0 (no effect) to 100 (complete control), read-out: Plant response rating, Oat, Wild", "value": 0, "unit": "%"}, {"measurement": "pest or weed control at 31 g/ha", "setting": "wild oat; 31 g ai/ha, scale 0-100, read-out: Plant response rating, Oat, Wild", "value": 0, "unit": "%"}, {"measurement": "pest or weed control at 62 g/ha", "setting": "wild oat; 62 g ai/ha, scale 0-100, read-out: Plant response rating, Oat, Wild", "value": 0, "unit": "%"}, {"measurement": "pest or weed control at 125 g/ha", "setting": "wild oat; 125 g ai/ha, scale 0-100, read-out: Plant response rating, Oat, Wild", "value": 0, "unit": "%"}, {"measurement": "pest or weed control at 16 g/ha", "setting": "galium; 16 g ai/ha, scale 0 (no effect) to 100 (complete control), read-out: Plant response rating, Galium", "value": 25, "unit": "%"}, {"measurement": "pest or weed control at 31 g/ha", "setting": "galium; 31 g ai/ha, scale 0-100, read-out: Plant response rating, Galium", "value": 40, "unit": "%"}, {"measurement": "pest or weed control at 62 g/ha", "setting": "galium; 62 g ai/ha, scale 0-100, read-out: Plant response rating, Galium", "value": 90, "unit": "%"}, {"measurement": "pest or weed control at 125 g/ha", "setting": "galium; 125 g ai/ha, scale 0-100, read-out: Plant response rating, Galium", "value": 100, "unit": "%"}, {"measurement": "plant injury at 16 g/ha", "setting": "spring wheat; 16 g ai/ha, scale 0-100, read-out: Plant response rating, Wheat, Spring", "value": 5, "unit": "%"}, {"measurement": "plant injury at 31 g/ha", "setting": "spring wheat; 31 g ai/ha, scale 0 to 100 (0 no effect, 100 complete control), read-out: Plant response rating, Wheat, Spring", "value": 5, "unit": "%"}, {"measurement": "plant injury at 62 g/ha", "setting": "spring wheat; 62 g ai/ha, scale 0 to 100 (0 no effect, 100 complete control), read-out: Plant response rating, Wheat, Spring", "value": 5, "unit": "%"}, {"measurement": "plant injury at 125 g/ha", "setting": "spring wheat; 125 g ai/ha, scale 0 to 100 (0 no effect, 100 complete control), read-out: Plant response rating, Wheat, Spring", "value": 15, "unit": "%"}, {"measurement": "plant injury at 16 g/ha", "setting": "winter wheat; 16 g ai/ha, scale 0-100, read-out: Plant response rating, Wheat, Winter", "value": 0, "unit": "%"}, {"measurement": "plant injury at 31 g/ha", "setting": "winter wheat; 31 g ai/ha, scale 0 to 100 (0 no effect, 100 complete control), read-out: Plant response rating, Wheat, Winter", "value": 0, "unit": "%"}, {"measurement": "plant injury at 62 g/ha", "setting": "winter wheat; 62 g ai/ha, scale 0 to 100 (0 no effect, 100 complete control), read-out: Plant response rating, Wheat, Winter", "value": 5, "unit": "%"}, {"measurement": "plant injury at 125 g/ha", "setting": "winter wheat; 125 g ai/ha, scale 0 to 100 (0 no effect, 100 complete control), read-out: Plant response rating, Wheat, Winter", "value": 15, "unit": "%"}, {"measurement": "pest or weed control at 16 g/ha", "setting": "windgrass; 16 g ai/ha, scale 0 (no effect) to 100 (complete control), read-out: Plant response rating, Windgrass", "value": 0, "unit": "%"}, {"measurement": "pest or weed control at 31 g/ha", "setting": "windgrass; 31 g ai/ha, scale 0 (no effect) to 100 (complete control), read-out: Plant response rating, Windgrass", "value": 0, "unit": "%"}, {"measurement": "pest or weed control at 62 g/ha", "setting": "windgrass; 62 g ai/ha, scale 0-100, read-out: Plant response rating, Windgrass", "value": 0, "unit": "%"}, {"measurement": "pest or weed control at 125 g/ha", "setting": "windgrass; 125 g ai/ha, scale 0-100, read-out: Plant response rating, Windgrass", "value": 15, "unit": "%"}, {"measurement": "pest or weed control at 16 g/ha", "setting": "field poppy; 16 g ai/ha, scale 0 (no effect) to 100 (complete control), read-out: Plant response rating, Field Poppy", "value": 100, "unit": "%"}, {"measurement": "pest or weed control at 31 g/ha", "setting": "field poppy; 31 g ai/ha, scale 0-100, read-out: Plant response rating, Field Poppy", "value": 100, "unit": "%"}, {"measurement": "pest or weed control at 62 g/ha", "setting": "field poppy; 62 g ai/ha, scale 0-100, read-out: Plant response rating, Field Poppy", "value": 100, "unit": "%"}, {"measurement": "pest or weed control at 125 g/ha", "setting": "field poppy; 125 g ai/ha, scale 0-100, read-out: Plant response rating, Field Poppy", "value": 100, "unit": "%"}]}
